Source: patent US7429605B2, “Phenylpyridine derivatives” (Hoffmann-La Roche Inc., priority 2005, dated 2008)

Test system: HEK293 cells
Assay: Viability assay in HEK293 cells (CellTiter-Glo Luminescent Cell Viability Assay)
Type: cell-based
Settings: Homo sapiens, 7 days (168 h) incubation, compound 3 μM to 0.00015 μM, ATP luminescence
Experimental: Viability Assay in HEK293 Cells
A viability assay was performed using the CellTiter-Glo® Luminescent Cell Viability Assay (see Promega Corporation's Technical Bulletin No. 288, pp. 1-11 [revised 2/04] which is hereby incorporated by reference in its entirety). This assay is a homogeneous method of determining the number of viable cells in culture based on quantitation of the ATP present, an indicator of metabolically active cells. The assay is designed for use with multiwell formats, making it ideal for automated high-throughput screening (HTS), cell proliferation and cytotoxicity assays. The homogeneous assay procedure involves adding a single reagent (containing luciferase, luciferan substrate, and buffer) directly to cells cultured in serum-supplemented medium. Cell washing, removal of medium and multiple pipetting steps are not required. The system detects as few as 15 cells/well in a 384-well format in 10 minutes after adding reagent and mixing.
The homogeneous “add-mix-measure” format results in cell lysis and generation of a luminescent signal proportional to the amount of ATP present. The amount of ATP is directly proportional to the number of cells present in culture. The above-referenced assay generates a “glow-type” luminescent signal, produced by the luciferase reaction, which has a half-life generally greater than five hours, depending on cell type and medium used. The extended half-life eliminates the need to use reagent injectors and provides flexibility for continuous or batch mode processing of multiple plates. The unique homogeneous format avoids errors that may be introduced by other ATP measurement methods that require multiple steps.
HEK293 cells (human embryonic kidney cell line transformed by Adenovirus 5 fragments, ATCC-No. CRL 1573) were cultivated in Dulbecco's Modified Eagle Medium (DMEM) with Glutamax™ (cell culture media that contains L-Alanyl-L-Glutamine [a stabilized form/source of L-Glutamine] from Invitrogen, Cat-No. 31966-021), 5% Fetal Calf Serum (FCS, Sigma Cat-No. F4135 (FBS)), 100 Units/ml penicillin/100 μg/ml streptomycin (=Pen/Strep from Invitrogen Cat. No. 15140). For the assay the cells were seeded in 384 well plates, 5000 cells per well, in the same medium. The next day the test compounds were added in various concentrations ranging from 3 μM to 0.00015 μM (10 concentrations, 1:3 diluted). After 7 days the viability assay was done according to the instructions of the manufacturer. In brief: the cell-plate was equilibrated to room temperature for approximately 30 minutes and than the reagent (containing luciferase, luciferan substrate, and buffer) was added. The contents were carefully mixed for 15 minutes to induce cell lysis. After 45 minutes the luminescent signal was measured in Victor 2, (scanning multiwell spectrophotometer, Wallac).
Medium: Dulbecco's Modified Eagle Medium (DMEM) with Glutamax™ (Invitrogen, 31966-021), 5% Fetal Calf Serum (FCS, Sigma Cat-No. F4135 (FBS)), Pen/Strep (Invitrogen Cat. No. 15140).
Incubate 24 h at 37° C., 5% CO2
2. day Induction (Substance testing):
In general the dilution steeps are 1:3 a) Add 8 μl of 10 mM stock solution of compound to 72 μl DMSO b) dilute 9×1:3 (always 30 μl to 60 μl DMSO) in this DMSO dilution row (results in 10 wells with concentrations from 1000 μM to 0.06 μM) c) dilute each concentration 1:4.8 (10 μl compound dilution to 38 μd medium) d) dilute each concentration 1:10 (10 μl compound dilution to 90 μl medium) e) add 10 μl of every concentration to 60 μl medium in the cell plate resulting in final concentration of DMSO: 0.3% in every well and resulting in final concentration of compounds from 3 μM to 0.00015 μM Incubate 168 h (7 days) at 37° C., 5% CO2
Add 30 μl CellTiter-Glo™ Reagent (containing luciferase, luciferan substrate, and buffer)/well, shake 15 minutes at room temperature incubate further 45 minutes at room temperature without shaking.
Victor 2 scanning multiwell spectrophotometer (Wallac), Luminescence mode […]

Row | SMILES | IC50
1 | Cc1nc(-c2ccc(F)cc2)ccc1COc1ccc(CSCCn2ccnn2)cc1 [Example 23, 6-(4-Fluoro-phenyl)-2-methyl-3-[4-(2-[1,2,3]triazol-1-yl-ethylsulfanylmethyl)-phenoxymethyl]-pyridine] | 1000 to 5000 nM
2 | Cc1cc(OCc2ccc(-c3ccc(C(F)(F)F)cc3)nc2)ccc1CCCCn1ccnn1 [Example 5, 5-[3-Methyl-4-(4-[1,2,3]triazol-1-yl-butyl)-phenoxymethyl]-2-(4-trifluoromethyl-phenyl)-pyridine] | 89 nM
3 | Cc1cc(OCc2ccc(-c3ccc(C(F)(F)F)cc3)nc2C)ccc1CCCCn1ccnn1 [Example 6, 2-Methyl-3-[3-Methyl-4-(4-[1,2,3]triazol-1-yl-butyl)-phenoxymethyl]-6-(4-trifluoromethyl-phenyl)-pyridine] | 5 to 1000 nM
4 | Cc1nc(-c2ccc(F)cc2)ccc1COc1ccc(CCCCn2ccnn2)cc1 [Example 16, 6-(4-Fluoro-phenyl)-2-methyl-3-[4-(4-[1,2,3]triazol-1-yl-butyl)-phenoxymethyl]-pyridine] | 5 to 1000 nM
5 | Cc1nc(-c2ccc(Cl)cc2)ccc1COc1ccc(CCCCn2ccnn2)cc1 [Example 20, 6-(4-Chloro-phenyl)-2-methyl-3-[4-(4-[1,2,3]triazol-1-yl-butyl)-phenoxymethyl]-pyridine] | 5 to 1000 nM
6 | Cc1cc(OCc2ccc(-c3cccc(C(F)(F)F)c3)nc2C)ccc1CCCCn1ccnn1 [Example 13, 2-Methyl-3-[3-Methyl-4-(4-[1,2,3]triazol-1-yl-butyl)-phenoxymethyl]-6-(3-trifluoromethyl-phenyl)-pyridine] | 1000 to 5000 nM
7 | FC(F)(F)c1ccc(-c2cncc(COc3ccc(CCCCn4ccnn4)cc3)c2)cc1 [Example 33, 3-[4-(4-[1,2,3]Triazol-1-yl-butyl)-phenoxymethyl]-5-(4-trifluoromethyl-phenyl)-pyridine] | 1000 to 5000 nM
8 | Cc1cc(OCc2ccc(-c3ccc(Cl)cc3)nc2C)ccc1CCCCn1ccnn1 [Example 21, 6-(4-Chloro-phenyl)-2-methyl-3-[3-Methyl-4-(4-[1,2,3]triazol-1-yl-butyl)-phenoxymethyl]-pyridine] | 5 to 1000 nM
9 | Cc1nc(-c2ccc(C(F)(F)F)cc2)ccc1COc1ccc(CSCCn2ccnn2)cc1 [Example 22, 2-Methyl-3-[4-(2-[1,2,3]triazol-1-yl-ethylsulfanylmethyl)-phenoxymethyl]-6-(4-trifluoromethyl-phenyl)-pyridine] | 5 to 1000 nM
10 | FC(F)(F)c1ccc(-c2cccc(COc3ccc(CCCCn4ccnn4)cc3)n2)cc1 [Example 18, 2-[4-(4-[1,2,3]triazol-1-yl-butyl)-phenoxymethyl]-6-(4-trifluoromethyl-phenyl)-pyridine] | 1000 to 5000 nM
11 | Cc1cc(OCc2cncc(-c3ccc(Cl)cc3)c2)ccc1CCCCn1ccnn1 [Example 38, 3-(4-Chloro-phenyl)-5-[3-methyl-4-(4-[1,2,3]triazol-1-yl-butyl)-phenoxymethyl]-pyridine] | 1000 to 5000 nM
12 | Cc1cc(OCc2ccc(-c3ccc(Cl)cc3)nc2)ccc1CCCCn1ccnn1 [Example 28, 2-(4-Chloro-phenyl)-5-[3-methyl-4-(4-[1,2,3]triazol-1-yl-butyl)-phenoxymethyl]-pyridine] | 1000 to 5000 nM
13 | Cc1cc(OCc2ccc(-c3ccc(F)cc3)nc2C)ccc1CCCCn1ccnn1 [Example 17, 6-(4-Fluoro-phenyl)-2-methyl-3-[3-Methyl-4-(4-[1,2,3]triazol-1-yl-butyl)-phenoxymethyl]-pyridine] | 5 to 1000 nM
14 | Cc1nc(-c2ccc(C(F)(F)F)cc2F)ccc1COc1ccc(CCCCn2ccnn2)cc1 [Example 43, 6-(2-Fluoro-4-trifluoromethyl-phenyl)-2-methyl-3-[4-(4-[1,2,3]triazol-1-yl-butyl)-phenoxymethyl]-pyridine] | 1000 to 5000 nM
15 | Cc1nc(-c2ccc(C(F)(F)F)cc2)ccc1COc1ccc(COCCn2ccnn2)cc1 [Example 8, 2-Methyl-3-[4-(2-[1,2,3]triazol-1-yl-ethoxymethyl)-phenoxymethyl]-6-(4-trifluoromethyl-phenyl)-pyridine] | 5 to 1000 nM
16 | Cc1cc(OCc2cccc(-c3ccc(C(F)(F)F)cc3)n2)ccc1CCCCn1ccnn1 [Example 19, 2-[3-Methyl-4-(4-[1,2,3]triazol-1-yl-butyl)-phenoxymethyl]-6-(4-trifluoromethyl-phenyl)-pyridine] | 5 to 1000 nM
17 | Clc1ccc(-c2cccc(COc3ccc(CCCCn4ccnn4)cc3)n2)cc1 [Example 35, 2-(4-Chloro-phenyl)-6-[4-(4-[1,2,3]triazol-1-yl-butyl)-phenoxymethyl]-pyridine] | 1000 to 5000 nM
18 | Clc1ccc(-c2ccc(COc3ccc(CCCCn4ccnn4)cc3)cn2)cc1 [Example 27, 2-(4-Chloro-phenyl)-5-[4-(4-[1,2,3]triazol-1-yl-butyl)-phenoxymethyl]-pyridine] | 5 to 1000 nM
19 | Cc1nc(-c2ccc(C(F)(F)F)cc2)ccc1COc1ccc(C[S+]([O-])CCn2ccnn2)cc1 (stereo not drawn) [Example 9, 2-Methyl-3-[4-(2-[1,2,3]triazol-1-yl-ethanesulfinylmethyl)-phenoxymethyl]-6-(4-trifluoromethyl-phenyl)-pyridine] | 1000 to 5000 nM
20 | Cc1cc(OCc2ccc(-c3ccc(C(F)(F)F)cc3F)nc2C)ccc1CCCCn1ccnn1 [Example 42, 6-(2-Fluoro-4-trifluoromethyl-phenyl)-2-methyl-3-[3-methyl-4-(4-[1,2,3]triazol-1-yl-butyl)-phenoxymethyl]-pyridine] | 5 to 1000 nM
21 | Cc1cc(OCc2cccc(-c3ccc(OC(F)(F)F)cc3)n2)ccc1CCCCn1ccnn1 [Example 30, 2-[3-Methyl-4-(4-[1,2,3]triazol-1-yl-butyl)-phenoxymethyl]-6-(4-trifluoromethoxy-phenyl)-pyridine] | 1000 to 5000 nM
22 | Cc1cc(OCc2ccc(-c3ccc(OC(F)(F)F)cc3)nc2C)ccc1CCCCn1ccnn1 [Example 11, 2-Methyl-3-[3-Methyl-4-(4-[1,2,3]triazol-1-yl-butyl)-phenoxymethyl]-6-(4-trifluoromethoxy-phenyl)-pyridine] | 5 to 1000 nM
23 | Cc1cc(OCc2ccc(-c3ccc(OC(F)(F)F)cc3)nc2)ccc1CCCCn1ccnn1 [Example 4, 5-[3-Methyl-4-(4-[1,2,3]triazol-1-yl-butyl)-phenoxymethyl]-[2-(4-trifluoromethoxy-phenyl)]-pyridine] | 365 nM
24 | Cc1cc(OCc2ccc(-c3cccc(OC(F)(F)F)c3)nc2C)ccc1CCCCn1ccnn1 [Example 15, 2-Methyl-3-[3-Methyl-4-(4-[1,2,3]triazol-1-yl-butyl)-phenoxymethyl]-6-(3-trifluoromethoxy-phenyl)-pyridine] | 1000 to 5000 nM
25 | FC(F)(F)c1ccc(-c2ccc(COc3ccc(CCCCn4ccnn4)cc3)cn2)cc1 [Example 3, 5-[4-(4-[1,2,3]triazol-1-yl-butyl)-phenoxymethyl]-[2-(4-trifluoromethyl-phenyl)]-pyridine] | 5 to 1000 nM
26 | Cc1nc(-c2ccc(C(F)(F)F)cc2)ccc1COc1ccc(CCCCn2ccnn2)cc1 [Example 7, 2-Methyl-3-[4-(4-[1,2,3]triazol-1-yl-butyl)-phenoxymethyl]-6-(4-trifluoromethyl-phenyl)-pyridine] | 5 to 1000 nM
27 | Cc1cc(OCc2ccc(-c3cccc(C(F)(F)F)c3)nc2)ccc1CCCCn1ccnn1 [Example 26, 5-[3-Methyl-4-(4-[1,2,3]triazol-1-yl-butyl)-phenoxymethyl]-2-(3-trifluoromethyl-phenyl)-pyridine] | 1000 to 5000 nM
